Reference: patent US9309242B2, “Substituted pyrido[2,3-b]pyrazines as FGFR kinase inhibitors” (priority 2011, dated 2016)
pIC50: −log10 of the molar value.

Assays:
[1] = target: T1, Ba/F3-FGFR1-transfected cells (Homo sapiens, UniProt P11362); assay: Ba/F3-FGFR1 (minus IL3) cellular proliferation assay, Alamar Blue; assay type: cell-based
T1 construct: BAF3-FGFR1 (MIN IL3) pIC50; other: minus IL3
Method in brief: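 Ba/F3-FGFR1 cells (20000 per well) were exposed to compound for 24 h at 37 °C in RPMI-1640 with 10% FBS. Alamar Blue (resazurin) was then added for 4 h, and fluorescence was read at ex 540/em 590 nm.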

[2] = target: T2, Ba/F3-KDR-transfected cells (Homo sapiens, UniProt P35968); assay: Ba/F3-KDR (minus IL3) cellular proliferation assay, Alamar Blue; assay type: cell-based
T2 construct: BAF3-KDR (MIN IL3) pIC50; other: minus IL3
Method in brief: (§1)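 Read-out: resazurin-based Alamar Blue fluorescence (ex. 540, em. 590 nm) after 4 h. Before that, cells were incubated with compound for 24 h at 37° C. The counterscreen ran identically but with IL3 supplemented.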

[3] = tested on: Ba/F3-FGFR3-transfected cells; assay: Ba/F3-FGFR3 (plus IL3) cellular proliferation assay, counterscreen with 10 ng/ml murine IL3; assay type: cell-based; conditions: plus IL3 (10 ng/ml murine IL3, counterscreen)
Method in brief: (§2)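 Ba/F3 cells transfected with FGFR3, 20000/well in phenol red-free RPMI-1640 with 10% FBS, exposed to compound for 24 h at 37 °C, 5% CO2. Alamar Blue (resazurin) added for 4 h more; fluorescence read at ex 540/em 590 nm. Counterscreen run the same way with 10 ng/ml murine IL3.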

[4] = tested on: Ba/F3-FGFR1-transfected cells; assay: Ba/F3-FGFR1 (plus IL3) cellular proliferation assay, counterscreen with 10 ng/ml murine IL3; assay type: cell-based; conditions: plus IL3 (10 ng/ml murine IL3, counterscreen)
Method in brief: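 Proliferation read-out: resazurin-based Alamar Blue fluorescence (540/590 nm) after 4 h, following 24 h compound treatment of 20000 Ba/F3-FGFR1 cells per well in 10% FBS RPMI at 37° C. IL3 counterscreen used the same protocol plus 10 ng/ml murine IL3.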

[5] = target: T3, Ba/F3-FGFR3-transfected cells (Homo sapiens, UniProt P22607); assay: Ba/F3-FGFR3 (minus IL3) cellular proliferation assay, Alamar Blue; assay type: cell-based
T3 construct: BAF3-FGFR3 (MIN IL3) pIC50; other: minus IL3
Method in brief: as §2

KDR (h) = KDR (h) (Homo sapiens, UniProt P35968); assay: KDR (VEGFR2) (enzymatic assay), TR-FRET; assay type: biochemical; conditions: average values if tested multiple times, read-out: VEGFR 2 (KDR) pIC50 (converted)
Method in brief: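 3 μM ATP, 500 nM Btn-Flt3 substrate, 150 ng/ml kinase; HEPES pH 7.5 with MnCl2, DTT, vanadate, Triton; 1% DMSO. 120 min RT. Stop: EDTA + Eu-anti-P-Tyr + SA-XL-665, 60 min RT. Readout TR-FRET ex340/em620, 655 nm, RFU.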

FGFR3 (h) = FGFR3 (h) (Homo sapiens, UniProt P22607); assay: FGFR3 (enzymatic assay), TR-FRET; assay type: biochemical; conditions: average values if tested multiple times, read-out: FGFR 3 pIC50 (converted)
From the text: Time-Resolved Fluorescence Resonance Energy Transfer (TR-FRET) signal (ex340 nm.

[6] = tested on: Ba/F3-KDR-transfected cells; assay: Ba/F3-KDR (plus IL3) cellular proliferation assay, counterscreen with 10 ng/ml murine IL3; assay type: cell-based; conditions: plus IL3 (10 ng/ml murine IL3, counterscreen)
Method in brief: as §1

FGFR4 (h) = FGFR4 (h) (Homo sapiens, UniProt P22455); assay: FGFR4 (enzymatic assay), TR-FRET; assay type: biochemical; conditions: FGFR 4 pIC50, enzymatic assay; average values if tested multiple times
[7] = target: Ba/F3-FGFR4-transfected cells (Homo sapiens, UniProt P22455); assay: Ba/F3-FGFR4 cellular proliferation assay, Alamar Blue; assay type: cell-based
Method in brief: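 Fluorescence read-out (ex. 540 nm, em. 590 nm) of resazurin-based Alamar Blue after 4 h, following 24 h compound exposure of Ba/F3-FGFR4-transfected cells (20000/well) at 37° C, 5% CO2.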

FGFR1 (h) = FGFR1 (h) (Homo sapiens, UniProt P11362); assay: FGFR1 (enzymatic assay), TR-FRET; assay type: biochemical; conditions: average values if tested multiple times, read-out: FGFR 1 pIC50 (converted)
FGFR2 (h) = FGFR2 (h) (Homo sapiens, UniProt P21802); assay: FGFR2 (enzymatic assay), TR-FRET; assay type: biochemical; conditions: enzymatic assay; average values if tested multiple times; read-out: FGFR 2 pIC50 (converted)
Method in brief: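 hFGFR2 150 ng/ml; Btn-Flt3 500 nM; ATP 0.4 μM; 50 mM HEPES pH 7.5, 6 mM MnCl2, 1 mM DTT, 0.1 mM Na3VO4, 0.01% Triton-X-100; 1% DMSO final.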

T2 sequence (P35968 whole entry, change not shown): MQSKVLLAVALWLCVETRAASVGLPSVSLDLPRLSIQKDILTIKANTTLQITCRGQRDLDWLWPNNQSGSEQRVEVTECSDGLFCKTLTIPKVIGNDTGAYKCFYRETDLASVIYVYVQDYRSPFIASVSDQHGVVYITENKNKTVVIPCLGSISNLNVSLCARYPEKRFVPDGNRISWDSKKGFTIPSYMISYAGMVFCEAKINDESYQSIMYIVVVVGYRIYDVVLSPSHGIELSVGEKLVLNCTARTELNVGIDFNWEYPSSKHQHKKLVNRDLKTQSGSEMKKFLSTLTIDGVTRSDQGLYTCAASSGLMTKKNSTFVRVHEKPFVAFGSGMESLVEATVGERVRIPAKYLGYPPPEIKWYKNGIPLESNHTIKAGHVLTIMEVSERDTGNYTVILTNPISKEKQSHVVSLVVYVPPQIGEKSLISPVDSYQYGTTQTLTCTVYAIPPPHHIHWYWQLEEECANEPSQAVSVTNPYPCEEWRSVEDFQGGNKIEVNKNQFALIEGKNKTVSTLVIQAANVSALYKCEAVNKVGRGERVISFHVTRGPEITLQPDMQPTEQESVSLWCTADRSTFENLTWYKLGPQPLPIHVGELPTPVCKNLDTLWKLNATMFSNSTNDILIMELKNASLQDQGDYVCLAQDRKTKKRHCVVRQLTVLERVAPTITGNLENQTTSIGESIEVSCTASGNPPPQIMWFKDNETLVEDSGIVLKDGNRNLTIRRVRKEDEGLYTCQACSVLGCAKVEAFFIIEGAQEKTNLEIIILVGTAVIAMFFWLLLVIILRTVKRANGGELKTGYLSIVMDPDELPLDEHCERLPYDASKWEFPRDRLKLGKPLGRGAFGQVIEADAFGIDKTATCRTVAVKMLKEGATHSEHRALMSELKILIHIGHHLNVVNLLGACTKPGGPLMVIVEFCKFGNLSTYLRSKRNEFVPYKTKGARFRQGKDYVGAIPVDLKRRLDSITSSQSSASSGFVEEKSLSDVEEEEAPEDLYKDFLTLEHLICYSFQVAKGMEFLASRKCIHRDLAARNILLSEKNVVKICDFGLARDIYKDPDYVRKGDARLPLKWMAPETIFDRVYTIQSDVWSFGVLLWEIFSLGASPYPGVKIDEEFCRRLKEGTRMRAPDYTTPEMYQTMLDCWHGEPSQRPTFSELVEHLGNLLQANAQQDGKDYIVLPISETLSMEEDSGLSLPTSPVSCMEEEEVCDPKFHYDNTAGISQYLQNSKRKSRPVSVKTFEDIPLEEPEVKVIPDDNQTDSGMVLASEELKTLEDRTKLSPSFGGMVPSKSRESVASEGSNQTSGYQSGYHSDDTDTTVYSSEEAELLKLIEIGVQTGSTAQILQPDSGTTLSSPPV
Sequence of FGFR2 (h) (P21802 22-821): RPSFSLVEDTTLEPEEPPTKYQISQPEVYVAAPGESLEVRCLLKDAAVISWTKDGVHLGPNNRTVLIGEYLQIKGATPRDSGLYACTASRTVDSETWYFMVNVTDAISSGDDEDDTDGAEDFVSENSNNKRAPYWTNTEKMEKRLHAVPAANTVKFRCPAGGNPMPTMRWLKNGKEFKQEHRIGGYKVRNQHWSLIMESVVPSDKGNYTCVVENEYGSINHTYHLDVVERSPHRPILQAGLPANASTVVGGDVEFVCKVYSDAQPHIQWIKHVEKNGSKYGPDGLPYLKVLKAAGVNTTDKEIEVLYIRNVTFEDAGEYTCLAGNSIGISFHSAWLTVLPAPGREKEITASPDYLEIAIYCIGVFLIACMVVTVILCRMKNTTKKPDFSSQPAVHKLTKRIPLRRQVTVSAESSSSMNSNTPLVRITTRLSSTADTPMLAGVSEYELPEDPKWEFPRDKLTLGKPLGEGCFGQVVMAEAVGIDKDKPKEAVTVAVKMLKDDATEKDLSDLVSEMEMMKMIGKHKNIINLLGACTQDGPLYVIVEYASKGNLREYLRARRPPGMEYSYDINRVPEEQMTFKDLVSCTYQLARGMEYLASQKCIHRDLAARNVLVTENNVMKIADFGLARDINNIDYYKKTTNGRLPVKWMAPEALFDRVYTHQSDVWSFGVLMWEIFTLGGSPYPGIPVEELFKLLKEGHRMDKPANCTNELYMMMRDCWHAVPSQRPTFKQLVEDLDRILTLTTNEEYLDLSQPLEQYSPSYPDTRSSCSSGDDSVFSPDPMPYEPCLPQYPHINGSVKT
Sequence of FGFR1 (h) (P11362 22-822): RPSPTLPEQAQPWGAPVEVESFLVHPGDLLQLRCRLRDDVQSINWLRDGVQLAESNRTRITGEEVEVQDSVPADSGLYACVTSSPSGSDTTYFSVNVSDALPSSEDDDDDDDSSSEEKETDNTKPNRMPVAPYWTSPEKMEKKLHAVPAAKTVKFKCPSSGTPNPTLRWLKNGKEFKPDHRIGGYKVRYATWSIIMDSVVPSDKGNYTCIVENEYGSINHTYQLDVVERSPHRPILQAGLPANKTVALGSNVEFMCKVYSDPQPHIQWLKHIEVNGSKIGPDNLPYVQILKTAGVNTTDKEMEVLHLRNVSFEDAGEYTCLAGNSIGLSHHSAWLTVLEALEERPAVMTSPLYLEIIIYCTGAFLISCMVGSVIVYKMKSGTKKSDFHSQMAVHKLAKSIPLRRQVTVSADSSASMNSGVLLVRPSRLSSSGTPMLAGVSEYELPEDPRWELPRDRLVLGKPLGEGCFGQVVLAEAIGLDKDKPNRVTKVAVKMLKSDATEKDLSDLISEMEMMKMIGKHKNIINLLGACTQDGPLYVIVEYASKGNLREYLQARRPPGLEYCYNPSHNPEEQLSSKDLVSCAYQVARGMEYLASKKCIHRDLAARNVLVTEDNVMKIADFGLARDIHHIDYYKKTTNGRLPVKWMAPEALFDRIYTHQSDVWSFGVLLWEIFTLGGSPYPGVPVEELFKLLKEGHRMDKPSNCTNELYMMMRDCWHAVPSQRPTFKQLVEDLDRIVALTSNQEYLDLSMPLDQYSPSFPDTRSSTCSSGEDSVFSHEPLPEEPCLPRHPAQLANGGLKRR
Sequence of FGFR4 (h) (P22455 22-802): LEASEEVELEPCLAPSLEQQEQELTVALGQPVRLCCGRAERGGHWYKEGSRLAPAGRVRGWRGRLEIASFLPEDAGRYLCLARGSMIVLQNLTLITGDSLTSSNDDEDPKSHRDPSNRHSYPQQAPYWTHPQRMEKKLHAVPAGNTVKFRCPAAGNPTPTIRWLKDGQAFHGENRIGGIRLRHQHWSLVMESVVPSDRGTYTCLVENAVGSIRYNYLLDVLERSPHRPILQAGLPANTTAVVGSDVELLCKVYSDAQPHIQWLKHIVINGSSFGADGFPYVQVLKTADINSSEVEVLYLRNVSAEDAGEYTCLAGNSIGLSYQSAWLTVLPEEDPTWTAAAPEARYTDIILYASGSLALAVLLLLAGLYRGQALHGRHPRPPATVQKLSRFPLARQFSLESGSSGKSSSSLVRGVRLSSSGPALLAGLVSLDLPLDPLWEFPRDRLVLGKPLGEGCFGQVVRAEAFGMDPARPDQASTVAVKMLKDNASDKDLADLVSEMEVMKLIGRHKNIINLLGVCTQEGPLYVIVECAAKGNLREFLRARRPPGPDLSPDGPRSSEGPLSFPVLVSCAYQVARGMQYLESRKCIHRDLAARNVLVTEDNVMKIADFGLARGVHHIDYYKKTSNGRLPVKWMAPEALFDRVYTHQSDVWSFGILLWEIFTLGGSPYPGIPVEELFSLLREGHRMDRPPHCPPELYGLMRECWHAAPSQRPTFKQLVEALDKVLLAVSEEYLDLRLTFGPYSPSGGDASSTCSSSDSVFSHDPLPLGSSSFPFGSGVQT
Sequence of Ba/F3-FGFR4-transfected cells (P22455 whole entry, change not shown): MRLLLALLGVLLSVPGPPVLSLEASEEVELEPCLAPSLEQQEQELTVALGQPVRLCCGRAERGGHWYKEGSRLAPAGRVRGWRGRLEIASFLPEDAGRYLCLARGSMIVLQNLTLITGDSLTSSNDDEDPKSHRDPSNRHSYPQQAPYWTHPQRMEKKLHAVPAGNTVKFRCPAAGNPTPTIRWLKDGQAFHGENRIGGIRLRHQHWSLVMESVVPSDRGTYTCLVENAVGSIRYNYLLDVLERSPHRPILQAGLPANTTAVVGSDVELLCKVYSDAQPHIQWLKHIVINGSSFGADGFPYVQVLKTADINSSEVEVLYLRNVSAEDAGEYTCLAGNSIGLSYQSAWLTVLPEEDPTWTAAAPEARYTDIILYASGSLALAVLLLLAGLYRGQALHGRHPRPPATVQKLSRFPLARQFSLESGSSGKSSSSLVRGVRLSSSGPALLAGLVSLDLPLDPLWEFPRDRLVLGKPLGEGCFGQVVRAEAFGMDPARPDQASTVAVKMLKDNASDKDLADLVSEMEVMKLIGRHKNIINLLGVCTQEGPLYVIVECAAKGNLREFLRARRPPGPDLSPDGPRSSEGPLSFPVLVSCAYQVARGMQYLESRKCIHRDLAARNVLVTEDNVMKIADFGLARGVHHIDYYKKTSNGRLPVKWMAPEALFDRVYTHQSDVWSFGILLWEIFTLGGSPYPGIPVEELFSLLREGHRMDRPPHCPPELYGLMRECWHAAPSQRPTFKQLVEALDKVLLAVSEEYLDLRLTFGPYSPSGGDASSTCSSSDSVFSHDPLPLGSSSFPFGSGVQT

| Structure (SMILES) | BAF3-FGFR1 (MIN IL3) pIC50 [1] | BAF3-KDR (MIN IL3) pIC50 [2] | BAF3-FGFR3 (PLUS IL3) pIC50 [3] | melting point [°C] | BAF3-FGFR1 (PLUS IL3) pIC50 [4] | BAF3-FGFR3 (MIN IL3) pIC50 [5] | IC50 (KDR (h)) [nM] | IC50 (FGFR3 (h)) [nM] | BAF3-KDR (PLUS IL3) pIC50 [6] | pIC50 (FGFR4 (h)) | BAF3-FGFR4 pIC50 [7] | IC50 (FGFR1 (h)) [nM] | IC50 (FGFR2 (h)) [nM] |
| --- | --- | --- | --- | --- | --- | --- | --- | --- | --- | --- | --- | --- | --- |
| COc1cc(OC)c(F)c(/N=c2\ccc3ncc(-c4cnn(C)c4)nc3n2CC2CCC(=O)N2)c1F (centres unmarked) [Compound 47] | 7.86 | 6.28 | <5 | 169 | <5 | ~7.76 | 12.6 | ~0.933 | <5 | 8.84 | 6.70 | 0.661 | 1.41 |
| COc1cc(OC)cc(N(CC2CCC(=O)N2)c2ccc3ncc(-c4cnn(C)c4)nc3n2)c1 (centres unmarked) [Compound 54] | 6.64 | 5.39 | <5 | 125 | <5 | 6.83 | 66.1 | 3.02 | <5 | 7.76 | 6.05 | 6.76 | 4.9 |
